Converted amounts (≈) assume the structure as drawn.
Columns and labels:
[1] = system: Haemonchus contortus larvae; assay: In vitro Haemonchus contortus larval motility (L1 to L3 development) assay, MIC90; assay type: cell-based; conditions: 96 h, L1 larvae in nutrient medium, 27° C., 97% relative humidity, 4 days, motility of L3 vs DMSO control, read-out: MIC90 (minimum concentration inhibiting motility of the larvae by 90%)
Experimental: The following procedure was used for the study: Twenty L1 Haemonchus contortus larvae were added to wells of a microtitre plate containing a nutrient medium and the test compound in DMSO. The microtitre plate was held at 27° C. and 97% Relative humidity for a 4 day period. Under these conditions the added larvae develop to the L3 stage. The efficacy of a compound is determined based on the motility of the resulting L3 larvae and compared to the motility of control wells treated with DMSO only.

Cooperia oncophora = assay: In vivo efficacy in experimentally infected calves, worm count reduction; conditions: oral; for efficacy against C. oncophora males in words: Compound I compared with eprinomectin (Group 3) or ivermectin (Group 4); for % Reduction in Worm Counts, C. oncophora Males: single treatment Day 0, necropsy Day 16, vs untreated control, Compound I 2 mg/kg, eprinomectin 0.075 mg/kg, ivermectin 0.150 mg/kg
Source text: (§1) The efficacy of Compound I against parasitic gastrointestinal nematodes in cattle when administered orally as an oral solution was studied. Thirty male castrate dairy calves of approximately 8 to 12 weeks of age were experimentally infected with parasitic nematodes. The calves were inoculated with Haemonchus […] Ostertagia ostertagi on Day -33 and with Cooperia punctata and Cooperia oncophora on Day -21. Calves were allocated to one of the six treatment groups. Calves in Treatment Group 1 were not treated. Calves in Treatment Groups 2-6 were treated on Day 0 as outlined in the Table 2 below with a formulation containing 5% (w/v) of Compound I in a carrier comprising 50% (v/v) PEG 400 with the remainder (QS to 130 mL0 PEG 300. [table] All calves were euthanized on Day 16 and the abomasum and small intestine were recovered from each calf and processed for parasite recovery. All five calves in the untreated control group harbored adequate infections of […]. ostertagi, C. punctate and C. oncophora. The efficacy of each treatment group relative to the control group is shown in Table 3 below: […]

Cooperia punctata = assay: as above; conditions: oral, single treatment Day 0, necropsy Day 16, vs untreated control, Compound I 2 mg/kg, eprinomectin 0.075 mg/kg, ivermectin 0.150 mg/kg
Source text: as §1

Cooperia spp. = assay: as above; conditions: oral; for % Reduction in Worm Counts, Cooperia spp. Females: single treatment Day 0, necropsy Day 16, vs untreated control, Compound I 2 mg/kg, eprinomectin 0.075 mg/kg, ivermectin 0.150 mg/kg
Source text: as §1

Haemonchus placei = assay: as above; conditions: oral, single treatment Day 0, necropsy Day 16, vs untreated control, Compound I 2 mg/kg, eprinomectin 0.075 mg/kg, ivermectin 0.150 mg/kg
Source text: as §1

Ostertagia ostertagi = assay: as above; conditions: oral, single treatment Day 0, necropsy Day 16, vs untreated control, Compound I 2 mg/kg, eprinomectin 0.075 mg/kg, ivermectin 0.150 mg/kg
Source text: as §1

Row | Compound | MIC90 [1] [ng/mL] | efficacy against C. oncophora males in words (Cooperia oncophora) | % Reduction in Worm Counts, C. oncophora Males (Cooperia oncophora) [%] | % Reduction in Worm Counts, C. punctata Males (Cooperia punctata) [%] | efficacy against Cooperia spp. female worms in words (Cooperia spp.; Compound I compared with eprinomectin (Group 3) or ivermectin (Group 4)) | % Reduction in Worm Counts, Cooperia spp. Females (Cooperia spp.) [%] | % Reduction in Worm Counts, H. placei Adults (Haemonchus placei) [%] | % Reduction in Worm Counts, O. ostertagi Females (Ostertagia ostertagi) [%] | % Reduction in Worm Counts, O. ostertagi Males (Ostertagia ostertagi) [%]
1 | CC(C#N)(Cn1cc2c(C(F)(F)F)cc(Cl)c(Cl)c2n1)NC(=O)c1ccc(SC(F)(F)F)cc1 (centres unmarked) [Compound II] | 1.2 (≈ 2.22 nM) | – | – | – | – | – | – | – | –
2 | CC(C#N)(Cn1cc2c(C(F)F)cc(Cl)c(Cl)c2n1)NC(=O)c1ccc(SC(F)(F)F)cc1 (centres unmarked) [Compound I] | 0.3 (≈ 0.573 nM) | significantly more effective | 83.0 | 100.0 | significantly more effective | 90.9 | 100.0 | 96.4 | 96.3
3 | CC(C#N)(Cn1cc2ccc(Cl)cc2n1)NC(=O)c1ccc(SC(F)(F)F)cc1 (centres unmarked) [‘999 App, 2.038] | 2.4 (≈ 5.47 nM) | – | – | – | – | – | – | – | –
4 | CC(C#N)(Cn1cc2c(Cl)cc(Cl)cc2n1)NC(=O)c1ccc(SC(F)(F)F)cc1 (centres unmarked) [‘999 App, 2.041] | 2.4 (≈ 5.07 nM) | – | – | – | – | – | – | – | –
5 | CC(C#N)(Cn1cc2c(Cl)cc(Cl)c(Cl)c2n1)NC(=O)c1ccc(SC(F)(F)F)cc1 (centres unmarked) [‘999 App, 2.049] | 1.2 (≈ 2.36 nM) | – | – | – | – | – | – | – | –
6 | eprinomectin | – | – | 0 | 94.7 | – | 55.8 | 98.9 | 99.4 | 95.7
7 | ivermectin | – | not effective | 0 | 91 | – | 46 | 82 | 81 | 75
